Reference: patent US10543159B2, “Hair papilla cell activator” (Ezaki Glico Co., Ltd., priority 2014, dated 2020)

System: Wnt5a
Experiment: Quantitative PCR gene expression in follicle dermal papilla cells: Wnt5a
Type: cell-based, human
Conditions: Example 3: 0.25% POs-Ca (R) or CaCl2 of equivalent calcium, DMEM, 37° C., 5 hours; Dunnett, n=6
Procedure: (1) 500 μl of a special medium in which 4×10^4 cells/ml of follicle dermal papilla cells were suspended was dispensed into a type I collagen-coated 24-well cell culture plate (Corning), and cultured at a cell density of 1.0×10^4 cells/cm^2 at 37° C. for 42 hours. […] Each of the solutions (a) to (c) was mixed with DMEM high glucose (Sigma, USA) at a ratio of 1:9.
(3) The medium was aspirated from each well obtained in (1), the well was washed by adding 1 ml of 1×PBS (137 mM NaCl, 8.1 mM Na2HPO4, 2.68 mM KCl, 1.47 mM KH2PO4 (pH 7.4); Wako Pure Chemical Industries, Ltd.), and aspirating the PBS, 500 μl of DMEM high glucose was added, and the cells were incubated in a CO2 incubator at 37° C. for 5 hours. […]
(4) The medium was removed from each well, and then mRNA was extracted using CellAmp Direct RNA Prep Kit for RT-PCR (Takara). The method was performed in accordance with the manual for the kit.
(5) 8 μl of the extracted mRNA solution (200 μl for each well) was used, and cDNA was obtained by the reverse transcription reaction at a scale of 40 μl, using PrimeScript RT Master Mix (Takara). The reaction conditions were as set forth in the manual for the kit.
(6) 0.5 μl of each of cDNA solutions diluted 2-fold with water, 1 μl of a solution containing 4 μM of each of primers 1 and 2 for each of the genes shown in Table 2, 5 μl of SYBR Premix Ex Taq II (Takara), and 3.5 μl of water were added, and quantitative PCR was performed on each of the genes. Using CFX96 Touch (BIO-RAD, USA), denaturation treatment at 95° C. for 30 seconds was performed, and then a two-step cycle at 95° C. for 5 seconds and at 62° C. for 20 seconds was performed for 65 cycles. Fluorescence intensity after each cycle was measured.
(7) Using PGK1 and GAPDH as reference genes, a comparative analysis of expression levels was performed with the analysis software (Bio-Rad CFX Manager 3.0) included in CFX96Touch. Relative expression levels were calculated under the default conditions of the software. […]

O.O.[Ca+2].[Cl-].[Cl-] [CaCl2, calcium chloride dihydrate]
expression of Wnt5a gene compared to control: significant increases in the expression of genes were not observed
